Tests used:
[1] = test system: Leberegel (Fasciola hepatica); experiment: Chemotherapeutic test in sheep infected with liver fluke (egg count reduction / worm burden); assay type: in vivo; details: Tabelle 1, Wirtstier: Schaf, p.o.; for minimal effective dose: Fasciola hepatica, po, minimum curative dose, read-out: Dosis (>90% Reduktion der Wurmbürde); for Chemotherapeut. Index: quotient of Dosis tolerata maxima and Dosis curativa minima
Description: (§1) Zur Feststellung der anthelminthischen Wirkung der Verbindungen der Formel I wurden chemotherapeutische Untersuchungen an ca. 25-30 kg schweren Schaflämmern ausgeführt, die entweder mit Metazerkarien von Fasciola hepatica oder mit Larven von Magen-Darm-Strongyliden, vornehmlich Haemonchus contortus und Trichostongylus colubriformis, oral infiziert worden waren. Nach Ablauf der Präpatenzperiode (Zeit zwischen Infektion und Geschlechtsreife der Parasiten mit beginnender Ausscheidung von Eiern oder Larven) wurde der Parasitenbefall durch Kotuntersuchungen gesichert. […] Unmittelbar danach wurde die Behandlung der Schafe (im allgemeinen 3 - 4 Tiere pro Wirkstoff, mindestens aber 2) vorgenommen. Den Tieren wurde oral oder parenteral eine Suspension von unterschiedlicher Wirkstoffmenge in jeweils 10 ml einer 1%igen Carboxymethylcellulose-Suspension appliziert. Jeweils am 7., 14. und 28. Tag nach der Behandlung wurde wiederum nach den vorstehend angegebenen Verfahren die Eizahl pro Gramm Kot ermittelt und ihre prozentuale Abnahme im Vergleich zum Ausgangswert vor der Behandlung errechnet. Mit einigen Verbindungen wurden außerdem beim Fasciola-Befall noch eine zusätzliche Prüftechnik angewandt: Nach Abschluß der Präpatenzperiode wurde bei Fasciola-positiven Schafen ein künstlicher Gallengang geschaffen, der am Ausgang der Gallenblase ein Sieb enthielt, so daß die nach der Behandlung abgetöteten Leberegel in der Gallenblase aufgefangen werden konnten. Vier bis sieben Tage nach der Behandlung wurden die so operierten und dann behandelten Schafe getötet, die abgetöteten Leberegel in der Gallenblase sowie noch eventuell in der Leber vorhandene lebende Leberegel gezählt und von der gesamten Wurmbürde der Prozentsatz der abgetöteten Parasiten berechnet.
(§2) Der chemotherapeutische Index gibt den Quotienten aus Do- sis tolerata maxima und Dosis curativa minima an.

[2] = test system: Magen-Darm-Würmer(Ostertagia, Haemonchur, Trichostrongylus, Cooperia, jeweils verschiedene Spezies); experiment: Chemotherapeutic test in sheep infected with gastrointestinal worms (egg count reduction / worm burden); assay type: in vivo; details: Tabelle 2, Wirtstier: Schaf; for Chemotherapeut. Index / minimal effective dose: p.o.; for Chemotherapeut. Index: quotient of Dosis tolerata maxima and Dosis curativa minima; for minimal effective dose: Trichostrongylus, po, read-out: Dosis (>90% Reduktion der Wurmbürde)
Description: as §1, §2

SMILES | minimal effective dose [1] [mg/kg] | Chemotherapeut. Index [1] | Chemotherapeut. Index [2] | minimal effective dose [2] [mg/kg] | Dosis (>90% Reduktion der Wurmbürde) ([2]; result in words, route not printed (oral bzw. subkutan))
O=C(Nc1ccc(OC(F)(F)F)cc1)c1cc(Cl)ccc1NS(=O)(=O)c1ccc(Cl)c(Cl)c1 [Verbindung 35, 5-Chlor-2-[(3,4-dichlorphenylsulfonyl)-amino]-benzoesäure-(4-trifluormethoxy-anilid)] | 2.5 | 20 | 5 | 10 | –
O=[N+]([O-])c1cc(Cl)cc(-c2cc(Cl)cc([N+](=O)[O-])c2O)c1O [Niclofolan, 5,5'-Dichlor-2-2'-dihydroxy-3,3'-dinitro-biphenyl, reference compound] | 3 | 3 | – | – | keine Wirkung
CCN(C(=O)c1cc(Cl)ccc1N(C)S(=O)(=O)c1ccc(Cl)c(Cl)c1)c1ccc(Cl)cc1 [Verbindung 42] | 2.5 | 20 | 10 | 5 | –
O=C(Nc1ccc(Oc2ccc(Cl)cc2)c(Cl)c1)c1cc(I)cc(I)c1O [Rafoxanide, 3'-Chlor-4'-(p-chlor-phenoxy)-3,5-dijod-salicylanilid, reference compound] | 7.5 | 6 | 6 | 7.5 | –
O=C(Nc1ccc(Cl)cc1)c1cc([N+](=O)[O-])ccc1NS(=O)(=O)c1ccc(Cl)c(Cl)c1 [Verbindung 38, 2-[(3,4-Dichlor-phenylsulfönyl)-amino]-5-nitrobenzoesäure-(4-chlor-anilid)] | – | – | 6 | 7.5 | –
O=C(Nc1ccc(Cl)cc1)c1cc(Cl)cc(Cl)c1NS(=O)(=O)c1ccc(Cl)cc1 [Verbindung 13, 3,5-Dichlor-2-[(4-chlor-phenylsulfonyl)-amino]-benzoesäure-(4-chlor-anilid)] | 5 | 10 | 5 | 10 | –
O=C(Nc1ccc(Cl)cc1)c1cc(Cl)ccc1NS(=O)(=O)c1ccc(Br)cc1 [Verbindung 20, 5-Chlor-2-[(4-brom-phenylsulfonyl)-amino]-benzoesäure-(4-chlor-anilid)] | 2.5 | 20 | 5 | 10 | –

Reference: EP0216028A2, “Use of anthranilic-acid derivatives as anthelmintic medicaments” (HOECHST AKTIENGESELLSCHAFT, priority 1985, dated 1987)
